Drawing on US20070027138A1 (priority 2000, published 2007), this text covers melting point and IC50 for 26 compounds.

Counter-ions that a name gives are not always drawn.

System in one data set: not given
Test: not given
Settings: not given
What is called melting point is the temperature, or range, at which the solid turns liquid. `COc1ccc2c3c1O[C@H]1C[C@@H](O)C=C[C@@]31CCN(C)C2=O` registered a melting point of 251 to 255 °C.

`COc1ccc2c3c1O[C@H]1C[C@@H](O)C=C[C@@]31CCN1OC(OC(C)=O)C[C@@H]21` (some centres unmarked) yielded a melting point of 132 to 134 °C.

On to `COc1ccc2c3c1O[C@H]1C[C@@H](O)C=C[C@@]31CCN1OC=C(C#N)[C@H]21`, for which the melting point lay in the range of 137 to 139 °C.

In the case of `COc1ccc2c3c1O[C@H]1C[C@@H](O)C=C[C@@]31CCN(CCCCCN1C(=O)c3cccc4cccc(c34)C1=O)C2` (as salt: fumarate), the melting point was in the range of 129 to 134 °C.

The target of another data set is acetylcholinesterase (AChE), human recombinant (Homo sapiens, UniProt P22303). Put plainly: biochemical. In kind it is biochemical.
acetylcholinesterase (AChE), human recombinant, sequence (P22303 32-614): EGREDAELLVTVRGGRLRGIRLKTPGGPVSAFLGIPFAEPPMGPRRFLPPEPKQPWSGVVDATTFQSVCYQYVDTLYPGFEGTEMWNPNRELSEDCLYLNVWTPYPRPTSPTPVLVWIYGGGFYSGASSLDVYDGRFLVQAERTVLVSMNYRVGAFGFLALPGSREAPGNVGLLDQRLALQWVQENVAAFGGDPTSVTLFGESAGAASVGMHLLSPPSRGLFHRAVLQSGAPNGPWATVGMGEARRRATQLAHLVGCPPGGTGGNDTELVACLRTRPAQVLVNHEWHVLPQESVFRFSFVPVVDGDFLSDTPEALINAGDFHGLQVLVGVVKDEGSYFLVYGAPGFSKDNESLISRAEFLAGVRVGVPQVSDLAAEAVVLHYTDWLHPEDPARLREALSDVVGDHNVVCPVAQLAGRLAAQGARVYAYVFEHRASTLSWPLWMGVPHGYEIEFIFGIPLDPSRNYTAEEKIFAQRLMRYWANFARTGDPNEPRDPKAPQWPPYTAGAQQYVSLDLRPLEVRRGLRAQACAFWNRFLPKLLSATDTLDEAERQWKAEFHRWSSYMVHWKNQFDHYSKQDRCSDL
Settings: not given
As a reminder, the IC50 is the midpoint of a concentration-inhibition curve. Turning to `COc1ccc2c3c1OC1CC(O)C=CC31CCN(CCCCN1C(=O)c3ccccc3S1(=O)=O)C2` (centres unmarked) [SPH-1369], the IC50 turned out to be 0.022 µM.

Staying with this data set, now noted: human recombinant enzyme (hr); pre-incubation of the enzyme with inhibitor (mE); read-out: IC50 (AChE, mE, hr).
As to `COc1ccc2c3c1OC1CC(O)C=CC31CC[N+](C)(CC1CC1)C2` (single isomer, unassigned; (-)) [SPH-1146, (−) Cyclopropylmethylgalanthaminium bromide], the IC50 was determined as 1.2 µM.

For the compound `CCOC(=O)CCN1CCC23C=C[C@H](O)CC2Oc2c(OC)cc(Br)c(c23)C1` (stereo partly drawn) [SPH-1162, 3-((6R)-1-Bromo-6-hydroxy-3-methoxy-5,6,9,10-tetrahydro-4aH-[1]benzofuro[3a,3,2-ef][2]benzazepin-11(12H)-yl)propanoic acid ethyl ester], the IC50 was found to be 200 µM.

In the case of `COc1cc(N(C)C)c2c3c1O[C@H]1CC(O)C=CC31CCN(C)C2` (some centres unmarked) [SPH-1163], the IC50 came out at 200 µM.

Turning to `C=CCN1CCC23C=CC(O)CC2Oc2c(OC)cc(C)c(c23)C1` (centres unmarked) [SPH-1199], the IC50 was found to be 200 µM.

Take `COc1cc(C)c2c3c1OC1CC(O)C=CC31CCN(C)C2` (centres unmarked) [SPH-1200]: the IC50 came out at 200 µM.

Take `COc1cc(C)c2c3c1OC1C[C@@H](O)C=CC31CCN(CCN1CCOCC1)C2` (some centres unmarked) [SPH-1202]: the IC50 was found to be 200 µM.

For the compound `COc1cc(C)c2c3c1OC1CC(O)C=CC31CCN(C)C2` (centres unmarked) [SPH-1204], the IC50 was 200 µM.

As to `COc1cc(Br)c2c3c1OC1C[C@@H](O)C=CC31CCN(C(=O)NC(C)C)C2` (stereo partly drawn) [SPH-1208, (6R)-1-Bromo-6-hydroxy-N^11-isopropyl-3-methoxy-5,6,9,10-tetrahydro-4aH-[1]benzofuro[3a,3,2-ef][2]benzazepine-11(12H)-carboxylic acid amide], the IC50 is 200 µM.

For `COc1ccc2c3c1OC1C[C@@H](O)C=CC31CCN(c1nc(Oc3ccccc3)nc(Oc3ccccc3)n1)C2` (stereo partly drawn) [SPH-1228, (6R)-11-(4,6-Diphenoxy-1,3,5-triazine-2-yl)-3-methoxy-5,6,9,10,11,12-hexahydro-4aH-[1]benzofuro[3a,3,2-ef][2]benzazepin-6-ol], the IC50 worked out at 200 µM.

For the compound `COc1ccc2c3c1OC1C[C@@H](O)C=CC31CCN(c1nc(OCCN)nc(OCCN)n1)C2` (stereo partly drawn) [SPH-1233, (6R)-11-(4,6-Bis-(2aminoethoxy)-1,3,5-triazine-2-yl)-3-methoxy-5,6,9,10,11,12-hexahydro-4aH-[1]benzofuro[3a,3,2-ef][2]benzazepin-6-ol], the IC50 turned out to be 200 µM.

Turning to `COc1ccc2c3c1OC1CC(O)C=CC31CN(C)CC2` (centres unmarked) [SPH-1263, (4aα,8aα)-4a,5,9,10,11-Hexahydro-3-methoxy-10-methyl-6H-benzofuro[3a,3,2-ef]-[3]benzazepin-6-ol], the IC50 was determined as 200 µM.

Consider `COc1ccc2c3c1OC1C[C@@H](O)C=CC31CCN(C(=O)Nc1ccccc1C(F)(F)F)C2` (some centres unmarked) [SPH-1266], for which the IC50 came to 30 µM.

On to `COc1ccc2c3c1OC1CC(O)C=CC31CCN(CCC(=O)O)C2` (centres unmarked) [SPH-1276], for which the IC50 is 42 µM.

With `COC(=O)C(=CN1CCC23C=CC(O)CC2Oc2c(OC)ccc(c23)C1)C(=O)OC` (centres unmarked) [SPH-1278], the IC50 was determined as 100 µM.

As for `COc1cc(C)c2c3c1OC1CC(O)C=CC31CCN(CCCN1CCCCC1)C2` (centres unmarked) [SPH-1298], the IC50 was 200 µM.

Regarding `COc1ccc2c3c1OC1CC(O)C=CC31CCCC2N` (centres unmarked) [SPH-1309], the 50% inhibitory concentration (IC50) was 200 µM.

Consider `COc1ccc2c3c1OC1CC(O)C=CC31CCN(CCN)C2` (centres unmarked) [SPH-1311], for which the concentration for half-maximal inhibition (IC50) came out at 1.3 µM.

On to `C=CCCC(=O)N1CCC23C=CC(O)CC2Oc2c(OC)ccc(c23)C1` (centres unmarked) [SPH-1326], for which the IC50 was 8.4 µM.

For `COC(=O)C1=CON2CCC34C=CC(O)CC3Oc3c(OC)ccc(c34)C12` (centres unmarked) [SPH-1332], the IC50 stood at 200 µM.

The data set is the same for the next values; noted with them: last section of the table, own sub-head (r307); read-out: IC50 AChE.
As to `C=C(C)C[N+]1(C)CC[C@@]23C=C[C@H](O)C[C@@H]2Oc2c(OC)ccc(c23)C1` (some centres unmarked) [SPH-1193], the IC50 was 1.5 µM.

Staying with this data set, now noted: read-out: IC50 (AChE, mE, hr); human recombinant enzyme (hr); pre-incubation of the enzyme with inhibitor (mE).
With `COc1cc(Br)c2c3c1OC1C[C@@H](O)C=CC31CCN(CCC#N)C2` (stereo in doubt) [SPH-1210, 3-((6R)-1-Bromo-6-hydroxy-3-methoxy-5,6,9,10-tetrahydro-4aH-[I]benzofuro[3a,3,2-ef][2]benzazepine-11(12H)-yl)propanenitrile], the IC50 stood at 200 µM.
